Experimental findings from patent publication US11051515B2, “3-acyl-benzamides and their use as herbicides” (Bayer Aktiengesellschaft, priority 2017, dated 2021) are described below.

Experiment [1] has as its system VERPE. In words: Post-emergence action against VERPE. The format is in vivo, Veronica persica. Particulars: Veronica persica, 504 h, dosage 80 g/ha. In a few lines:
(§1)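 Weeds grown in sandy loam in greenhouse, treated at one-leaf stage (2–3 weeks after sowing) with WP or EC formulations sprayed as aqueous suspension/emulsion at 600 to […] water with 0.2% wetting agent. Visual rating after about 3 weeks versus untreated controls, as % herbicidal action (100% = plants dead, 0% = like control).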

The subject of the next experiment is ABUTH. The experiment in a line: Pre-emergence action against ABUTH. Particulars: Abutilon theophrasti, 504 h; pre-emergence, dosage 320 g/ha, scored visually after 3 weeks vs untreated controls; read-out: Pre-emergence action against ABUTH (herbicidal activity). The format is in vivo, Abutilon theophrasti. In outline: (§2)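 Seeds sown in sandy loam in wood-fiber pots and covered with soil. Greenhouse growth; visual damage scored after 3 weeks versus untreated controls (100% = dead, 0% = like control).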

Experiment [2] has as its system VIOTR. The experiment in a line: Pre-emergence action against VIOTR. It counts as in vivo, Viola tricolor. Particulars: Viola tricolor, 504 h; Dosage 320 g/ha, pre-emergence. In outline: as §2
Experiment [3] relates to VIOTR. In words: Post-emergence action against VIOTR. The format is in vivo, Viola tricolor. Particulars: Viola tricolor, 504 h; post-emergence, dosage 80 g/ha. In a few lines: as §1
The test system of the next experiment is CYPES. The experiment in a line: Pre-emergence action against CYPES. Conditions: Cyperus esculentus, 504 h; pre-emergence, dosage 320 g/ha, scored visually after 3 weeks vs untreated controls; read-out: Pre-emergence action against CYPES (herbicidal activity). The format is in vivo, Cyperus esculentus. In outline: as §2
The test system of experiment [4] is ALOMY. In words: Pre-emergence action against ALOMY. It counts as in vivo, Alopecurus myosuroides. Particulars: Alopecurus myosuroides, 504 h; dosage 320 g/ha; pre-emergence; scored visually after 3 weeks vs untreated controls; 100% = plants have died, 0% = like control plants; read-out: Pre-emergence action against ALOMY (herbicidal activity in percent). In a few lines:
as §2

Experiment [5] concerns STEME. In words: Pre-emergence action against STEME. The format is in vivo, Stellaria media. Conditions: Stellaria media, 504 h; Dosage 320 g/ha, pre-emergence. In outline: as §2
Experiment [6] deals with ALOMY. In words: Post-emergence action against ALOMY. Particulars: Alopecurus myosuroides, 504 h; Dosage 80 g/ha, post-emergence. The format is in vivo, Alopecurus myosuroides. In a few lines:
as §1

The test system of the next experiment is MATIN. The experiment in a line: Post-emergence action against MATIN. It counts as in vivo, Matricaria inodora. Conditions: Tripleurospermum inodorum, 504 h; post-emergence, dosage 80 g/ha, visual assessment about 3 weeks after treatment vs untreated controls; read-out: Post-emergence action against MATIN (herbicidal action in percent). In outline: as §1
The test system of the next experiment is PHBPU. The experiment in a line: Post-emergence action against PHBPU. It counts as in vivo, Pharbitis purpurea. Particulars: Ipomoea purpurea, 504 h; post-emergence, dosage 80 g/ha. In a few lines: as §1
The subject of the next experiment is POLCO. The experiment in a line: Post-emergence action against POLCO. The format is in vivo, Polygonum convolvulus. Particulars: Fallopia convolvulus, 504 h; post-emergence, dosage 80 g/ha. In outline:
as §1

Experiment [7] has as its system AVEFA. In words: Post-emergence action against AVEFA. The format is in vivo, Avena fatua. Conditions: Avena fatua, 504 h; post-emergence, dosage 80 g/ha, visual assessment about 3 weeks after treatment vs untreated controls; read-out: Post-emergence action against AVEFA (herbicidal action in percent). In a few lines: as §1
The test system of experiment [8] is ECHCG. In words: Pre-emergence action against ECHCG. It counts as in vivo, Echinochloa crus-galli. Conditions: Echinochloa crus-galli, 504 h; pre-emergence, dosage 320 g/ha, scored visually after 3 weeks vs untreated controls; read-out: Pre-emergence action against ECHCG (herbicidal activity). In a few lines: as §2
Another experiment concerns SETVI. The experiment in a line: Post-emergence action against SETVI. Conditions: Setaria viridis, 504 h; post-emergence, dosage 80 g/ha, visual assessment about 3 weeks after treatment vs untreated controls; read-out: Post-emergence action against SETVI (herbicidal action in percent). The format is in vivo, Setaria viridis. In a few lines:
as §1

For experiment [9], the system named is STEME. In words: Post-emergence action against STEME. Particulars: Stellaria media, 504 h; post-emergence, dosage 80 g/ha. It counts as in vivo, Stellaria media. In outline:
as §1

Experiment [10] concerns VERPE. In words: Pre-emergence action against VERPE. It counts as in vivo, Veronica persica. Particulars: Veronica persica, 504 h; Dosage 320 g/ha, pre-emergence. In outline: as §2
In experiment [11] the test system is AVEFA. The experiment in a line: Pre-emergence action against AVEFA. It counts as in vivo, Avena fatua. Conditions: Avena fatua, 504 h, dosage 320 g/ha, scored visually after 3 weeks vs untreated controls, read-out: Pre-emergence action against AVEFA (herbicidal activity). In outline:
as §2

For the next experiment, the system named is AMARE. In words: Pre-emergence action against AMARE. Particulars: Amaranthus retroflexus, 504 h; pre-emergence, dosage 320 g/ha, scored visually after 3 weeks vs untreated controls; read-out: Pre-emergence action against AMARE (herbicidal activity). It counts as in vivo, Amaranthus retroflexus. In outline:
as §2

The subject of experiment [12] is ECHCG. In words: Post-emergence action against ECHCG. It counts as in vivo, Echinochloa crus-galli. Conditions: Echinochloa crus-galli, 504 h; post-emergence, dosage 80 g/ha, visual assessment about 3 weeks after treatment vs untreated controls; read-out: Post-emergence action against ECHCG (herbicidal action in percent). In outline:
as §1

SMILES strings stand for the structures.

Regarding `CC(=O)c1c(C(F)(F)F)ccc(C(=O)Nc2nnnn2C)c1Cl` [1-137, 3-acetyl-2-chloro-N-(1-methyl-1H-tetrazol-5-yl)-4-(trifluoromethyl)benzamide], the pest or weed control at 80 g/ha with VERPE [1] was found to be 90%; in the experiment on VIOTR [3], 100%; in the experiment on ALOMY [6] it was 80%; in the experiment on MATIN, 90%; in the experiment with PHBPU, 100%; in the experiment with POLCO it was 100%. The pest or weed control at 80 g/ha in the experiment on AVEFA [7] was found to be 100%; in the experiment with SETVI, 100%; with STEME [9], 100%; with ECHCG [12], 90%. The pest or weed control at 320 g/ha turned out to be 100% with ABUTH; 100% in the experiment with VIOTR [2]; 100% in the experiment on CYPES; 90% in the experiment with ALOMY [4]; 100% in the experiment with STEME [5]; 100% in the experiment with ECHCG [8]. For the same compound, the pest or weed control at 320 g/ha with VERPE [10], in the experiment on AVEFA [11] and with AMARE was 100% each time.
With `CCC(=O)c1c(C(F)F)ccc(C(=O)Nc2nnnn2C)c1Cl` [1-165], the pest or weed control at 80 g/ha was 90% in the experiment with VERPE [1]; 90% with VIOTR [3]; 90% in the experiment on ALOMY [6]; 90% with MATIN; 90% in the experiment on PHBPU; 100% in the experiment with POLCO. Further, the pest or weed control at 80 g/ha with AVEFA [7] stood at 90%; in the experiment with SETVI it was 100%; with STEME [9], 100%; in the experiment on ECHCG [12], 90%. For the same compound, the pest or weed control at 320 g/ha in the experiment on ABUTH, in the experiment on VIOTR [2], with ALOMY [4], with STEME [5], in the experiment on ECHCG [8] and in the experiment on VERPE [10] was 100% each time. Further, the pest or weed control at 320 g/ha in the experiment with AVEFA [11] and in the experiment on AMARE was 100% each time.
With `CCn1nnnc1NC(=O)c1ccc(C(F)(F)F)c(C(=O)C2CC2)c1C` [2-18, 3-(cyclopropylcarbonyl)-N-(1-ethyl-1H-tetrazol-5-yl)-2-methyl-4-(trifluoromethyl)benzamide], the pest or weed control at 80 g/ha in the experiment on VERPE [1] came to 80%; in the experiment on VIOTR [3], 100%; in the experiment on ALOMY [6], 100%; in the experiment on MATIN it was 100%; in the experiment on PHBPU, 100%; in the experiment with POLCO, 100%. For the same compound, the pest or weed control at 80 g/ha in the experiment on AVEFA [7], in the experiment with SETVI, with STEME [9] and in the experiment with ECHCG [12] was 100% in each case. Also, the pest or weed control at 320 g/ha was determined as 100% in the experiment on ABUTH; 100% in the experiment on VIOTR [2]; 100% in the experiment with CYPES; 100% in the experiment on ALOMY [4]; 90% in the experiment with STEME [5]; 100% with ECHCG [8]. The pest or weed control at 320 g/ha in the experiment with VERPE [10], in the experiment on AVEFA [11] and in the experiment on AMARE was 100% in each case.
Regarding `CC(=O)c1c(I)ccc(C(=O)Nc2nnnn2C)c1Cl` [1-192], the pest or weed control at 320 g/ha in the experiment with ABUTH was 100%; in the experiment with VIOTR [2], 100%; in the experiment with CYPES it was 90%; in the experiment on ALOMY [4], 100%; in the experiment on STEME [5] it was 100%; in the experiment on ECHCG [8], 100%. For the same compound, the pest or weed control at 320 g/ha with AVEFA [11] and with AMARE was 100% throughout. Moreover, the pest or weed control at 80 g/ha in the experiment on VIOTR [3] was determined as 100%; in the experiment on ALOMY [6] it was 80%; in the experiment on MATIN, 100%; in the experiment on PHBPU, 80%; in the experiment on POLCO, 100%; with AVEFA [7], 80%. Moreover, the pest or weed control at 80 g/ha with SETVI and in the experiment on ECHCG [12] was 100% in each case.
For `Cn1nnnc1NC(=O)c1ccc(C(F)F)c(C(=O)C2CC2)c1Cl` [1-168], the pest or weed control at 80 g/ha with VERPE [1], with VIOTR [3], in the experiment on ALOMY [6], in the experiment with MATIN, with PHBPU and in the experiment with POLCO was 100% throughout. The pest or weed control at 80 g/ha with AVEFA [7], with SETVI, with STEME [9] and in the experiment on ECHCG [12] was 100% in each case. Besides, the pest or weed control at 320 g/ha in the experiment with ABUTH is 100%; in the experiment on VIOTR [2] it was 100%; in the experiment on CYPES, 90%; with ALOMY [4], 100%; with STEME [5] it was 100%; in the experiment with ECHCG [8], 100%. The pest or weed control at 320 g/ha in the experiment on VERPE [10], with AVEFA [11] and in the experiment on AMARE was 100% throughout.
For the compound `CCCC(=O)c1c(C(F)(F)F)ccc(C(=O)Nc2nnnn2C)c1C` [1-16], the pest or weed control at 80 g/ha in the experiment with VERPE [1] was 90%; in the experiment on VIOTR [3], 100%; in the experiment with ALOMY [6] it was 90%; in the experiment with MATIN it was 100%; in the experiment with PHBPU, 100%; in the experiment on POLCO it was 100%. Besides, the pest or weed control at 80 g/ha with AVEFA [7] turned out to be 90%; in the experiment with SETVI, 90%; in the experiment on STEME [9] it was 100%; in the experiment with ECHCG [12], 90%. The pest or weed control at 320 g/ha turned out to be 100% in the experiment with ABUTH; 100% in the experiment with VIOTR [2]; 90% with ALOMY [4]; 100% with STEME [5]; 100% in the experiment with ECHCG [8]; 100% in the experiment with VERPE [10]. Further, the pest or weed control at 320 g/ha with AVEFA [11] is 90%; in the experiment with AMARE, 100%.
For the compound `Cn1nnnc1NC(=O)c1ccc(C(F)(F)F)c(C(=O)C2CC2)c1C1CC1` [1-233], the pest or weed control at 80 g/ha with VERPE [1] was 100%; in the experiment with VIOTR [3] it was 90%; with ALOMY [6], 90%; with MATIN, 90%; in the experiment on PHBPU, 100%; with POLCO it was 90%. In addition, the pest or weed control at 80 g/ha in the experiment with AVEFA [7] was 90%; with SETVI, 90%; in the experiment with STEME [9] it was 90%; in the experiment with ECHCG [12], 100%. Also, the pest or weed control at 320 g/ha in the experiment on ABUTH, in the experiment on VIOTR [2], in the experiment on ALOMY [4], in the experiment on STEME [5], in the experiment on ECHCG [8] and in the experiment on VERPE [10] was 100% throughout. In addition, the pest or weed control at 320 g/ha in the experiment with AVEFA [11] and in the experiment on AMARE was 100% in each case.
